Source: ChEMBL document CHEMBL1149037, “Vanicosides A and B, protein kinase C inhibitors from Polygonum pensylvanicum” (J Nat Prod, 1994)
≈ marks a conversion by molar mass, not a printed value. Calls of active or inactive are those of the source. The rule behind the calls is not given here.

Tests used:
[1] = Inhibition of PKC
MCF = assay: Cytotoxicity against human MCF cells; type: functional, cell-based

Row | Structure (SMILES) | IC50 [1] [µg/mL] | Activity (MCF)
1 | COc1cc(/C=C/C(=O)OC[C@H]2O[C@H](O[C@]3(COC(=O)/C=C/c4ccc(O)cc4)O[C@H](COC(=O)/C=C/c4ccc(O)cc4)[C@@H](O)[C@@H]3OC(=O)/C=C/c3ccc(O)cc3)[C@H](O)[C@@H](O)[C@@H]2O)ccc1O [VANICOSIDE B] | 31 (≈ 32.4 µM) | Active
2 | COc1cc(/C=C/C(=O)OC[C@H]2O[C@@H](O[C@]3(COC(=O)/C=C/c4ccc(O)cc4)O[C@H](COC(=O)/C=C/c4ccc(O)cc4)[C@@H](O)[C@@H]3OC(=O)/C=C/c3ccc(O)cc3)[C@H](OC(C)=O)[C@@H](O)[C@@H]2O)ccc1O [VANICOSIDE A] | 44 (≈ 44 µM) | Active
3 | COc1cc(/C=C/C(=O)OC[C@H]2O[C@@H](O[C@]3(COC(=O)/C=C/c4ccc(OC(C)=O)cc4)O[C@H](COC(=O)/C=C/c4ccc(OC(C)=O)cc4)[C@@H](OC(C)=O)[C@@H]3OC(=O)/C=C/c3ccc(OC(C)=O)cc3)[C@H](OC(C)=O)[C@@H](OC(C)=O)[C@@H]2OC(C)=O)ccc1OC(C)=O | > 50 | –
